Experimental findings from ChEMBL document CHEMBL4483862, “Open-source discovery of chemical leads for next-generation chemoprotective antimalarials” (2018) are described below.

This experiment deals with Plasmodium berghei. Kind of experiment: Luciferase/luciferin-expressing antifolate-resistant parasites were used to infect a culture of HepG2 cells that were pre-incubated with compounds. Infected hepatocytes emit light due to the luciferase reaction. Assay results are presented as the percent inhibition of light emission compared to control. […]. The class given is functional. To be noted: sporozoite; for IC90: read-out: LUCIFERASE INFECTION ASSAY - IC90.

The mark [1] stands for this setting: read-out: LUCIFERASE INFECTION ASSAY - IC50.

Where only a bound is given, the exact number is not on record here.

As for `Cc1cc(O)c(C(=O)/C=C/c2cn(-c3ccccc3C)nc2-c2ccccc2)c(=O)o1`, the IC90 is > 10 µM. For the same compound, the IC50 (FFLUC_HILL_SLOPE 4.53, FFLUC_R_SQUARED 0.503, PBLUC_HILL_SLOPE 0.894, PBLUC_R_SQUARED 0.655, read-out: LUCIFERASE INFECTION ASSAY - IC50) was 6.09 µM.
`Cc1ccc(S(=O)(=O)N2c3ccc(S(N)(=O)=O)cc3CC2C)cc1` (centres undefined): the IC90 was > 9.01 µM. For the same compound, the IC50 (PBLUC_HILL_SLOPE 2.71, PBLUC_R_SQUARED 0.472, read-out: LUCIFERASE INFECTION ASSAY - IC50) was 4.01 µM.
For the compound `CCCCn1nc(C(=O)NNC(=O)Nc2ccc([N+](=O)[O-])cc2)c2ccccc2c1=O`, the IC90 is > 10 µM. For the same compound, the IC50 (HEPG2TOX_HILL_SLOPE 2.25, HEPG2TOX_R_SQUARED 0.286, read-out: LUCIFERASE INFECTION ASSAY - IC50) is > 10 µM.
Turning to `CC(C)NC(=O)c1c(NC(=O)c2cccc(F)c2)nc2ccccn12`, the IC90 was determined as 7.41 µM. Moreover, the IC50 (HEPG2TOX_HILL_SLOPE 3.53, HEPG2TOX_R_SQUARED 0.8, PBLUC_HILL_SLOPE 29.8, PBLUC_R_SQUARED 0.0967, read-out: LUCIFERASE INFECTION ASSAY - IC50) amounted to 6.88 µM.
For `CC(C)(C)OC(=O)Nc1ccc(C(=O)Nc2cccc(S(=O)(=O)NC3CC3)c2)cc1`, the IC90 turned out to be 3.66 µM. Besides, the IC50 (HEPG2TOX_HILL_SLOPE 12, HEPG2TOX_R_SQUARED 0.663, PBLUC_HILL_SLOPE 19.5, PBLUC_R_SQUARED 0.101, read-out: LUCIFERASE INFECTION ASSAY - IC50) worked out at 3.27 µM.
As to `Cc1cc(=O)n2nc(-c3ccc(C(C)(C)C)cc3)cc2[nH]1`, the IC90 stood at 2.42 µM. For the same compound, the IC50 (HEPG2TOX_HILL_SLOPE 9.72, HEPG2TOX_R_SQUARED 0.89, PBLUC_HILL_SLOPE 2.59, PBLUC_R_SQUARED 0.666, read-out: LUCIFERASE INFECTION ASSAY - IC50) is 1.04 µM.
In the case of `COc1ccc(Sc2ccc(NC(=O)c3ccc(Cl)cc3Cl)cc2C#N)cc1`, the IC90 was > 7.69 µM. Moreover, under setting [1], the IC50 was > 7.69 µM.
For the compound `Cc1nc2ccccc2c(=O)n1-c1ccc(C(=O)NCCc2ccc3c(c2)OCCO3)cc1`, the IC90 was > 10 µM. Besides, the IC50 under setting [1] is > 10 µM.
Consider `CCCc1ccc(-c2nc(-c3cccs3)no2)cc1`, for which the IC90 was found to be 0.0812 µM.
Turning to `O=C(NC1CC1)c1ccc(-c2cnn3c(NCc4ccc(F)cc4)ccnc23)cc1`, the IC90 was > 8.22 µM. The half-inhibitory concentration (IC50) (PBLUC_HILL_SLOPE 3.6, PBLUC_R_SQUARED 0.311, read-out: LUCIFERASE INFECTION ASSAY - IC50) worked out at 4.82 µM.
As for `COc1ccc(F)cc1CN(Cc1ccc(C(=O)NC2CC2)cc1)Cc1ccco1`, the IC90 was 0.722 µM. For the same compound, under “HEPG2TOX_HILL_SLOPE 2.87, HEPG2TOX_R_SQUARED 0.785, PBLUC_HILL_SLOPE 1.38, 16.4, PBLUC_R_SQUARED 0.804, 0.717, read-out: LUCIFERASE INFECTION ASSAY - IC50”, the IC50 came out at 0.286 µM.
Turning to `Cc1cc(N2CCN(Cc3nc(=O)c4cc(Cl)ccc4[nH]3)CC2)nc(C(C)C)n1`, the IC90 was > 10 µM. Besides, the IC50 (HEPG2TOX_HILL_SLOPE 8.69, HEPG2TOX_R_SQUARED 0.562, PBLUC_HILL_SLOPE 3.21, PBLUC_R_SQUARED 0.576, read-out: LUCIFERASE INFECTION ASSAY - IC50) turned out to be 5.79 µM.
`CN(C)S(=O)(=O)c1ccc(OCCOC(=O)c2c3c(nn2-c2ccccc2)CCCC3)cc1`: the IC90 is > 10 µM. In addition, for the setting “FFLUC_HILL_SLOPE 11.3, FFLUC_R_SQUARED 0.368, read-out: LUCIFERASE INFECTION ASSAY - IC50”, the IC50 is > 10 µM.
Turning to `CCN(CC)S(=O)(=O)c1cc(C)c(C)c(NC(=O)c2cc(C3CC3)nc3onc(C)c23)c1`, the IC90 was determined as 9.64 µM. Where the note is “PBLUC_HILL_SLOPE 5.13, PBLUC_R_SQUARED 0.485, read-out: LUCIFERASE INFECTION ASSAY - IC50”, the concentration for half-maximal inhibition (IC50) was determined as 6.28 µM.
Regarding `CCOC(=O)c1ccc(-n2sccc2=O)cc1`, the IC90 is > 13.2 µM. For the same compound, the IC50 under setting [1] is > 13.2 µM.
Consider `CN(C)CCCNC(=O)c1ccc(-c2cn3c(-c4cccc(Cl)c4)cnc3cn2)cc1`, for which the IC90 was > 7.6 µM. Also, under setting [1], the IC50 is > 7.6 µM.
Consider `COc1ccc(-c2cc(NC(=O)c3cc(Cl)c(Cl)[nH]3)ccc2OC)cc1`, for which the IC90 amounted to 4.33 µM. Further, the IC50 under setting [1] is 3.49 µM.
With `Cc1nn(CC(=O)Nc2cc(C(F)(F)F)ccc2Oc2ccc(Br)cc2)c(=O)c(C#N)c1C`, the IC90 was > 10 µM. The IC50 under setting [1] is > 10 µM.
Turning to `O=C(Cc1cccs1)NCC(c1ccccc1Cl)c1c[nH]c2ccccc12` (centres undefined), the 90% effect concentration (IC90) turned out to be 9.35 µM. Further, the concentration for half-maximal inhibition (IC50) (FFLUC_HILL_SLOPE 3.31, FFLUC_R_SQUARED 0.784, PBLUC_HILL_SLOPE 3.75, PBLUC_R_SQUARED 0.47, read-out: LUCIFERASE INFECTION ASSAY - IC50) was found to be 5.2 µM.
In the case of `CCCCOc1ccc(CN2CCN(CC(=O)NC)CC2)cc1OCC`, the IC90 was > 10 µM. The IC50 under setting [1] was > 10 µM.
For `CC(=O)c1cccc(-c2cnc3cnc(-c4cnn(C)c4)cn23)c1`, the IC90 is > 10.4 µM. Moreover, the IC50 (HEPG2TOX_HILL_SLOPE 7.11, HEPG2TOX_R_SQUARED 0.363, PBLUC_HILL_SLOPE 4.07, PBLUC_R_SQUARED 0.503, read-out: LUCIFERASE INFECTION ASSAY - IC50) stood at 9.68 µM.
For the compound `COc1cc(/C=N/Nc2c(Cl)c(Cl)nc(C(=O)O)c2Cl)cc(OC)c1OC`, the IC90 was > 10 µM. Further, the IC50 (HEPG2TOX_HILL_SLOPE 0.214, HEPG2TOX_R_SQUARED 0.0951, read-out: LUCIFERASE INFECTION ASSAY - IC50) was > 10 µM.
For `CCOC(=O)c1cnn(-c2cccc(NC(=O)c3ccc(SC)c([N+](=O)[O-])c3)c2)c1C`, the IC90 is > 10 µM. Besides, the IC50 under setting [1] is > 10 µM.
As to `Cc1ccc(C(=O)c2sc(Nc3ccc(F)cc3)c(-c3nnc(N4CCOCC4)n3-c3ccccc3)c2N)cc1C`, the IC90 was > 10 µM. In addition, where the note is “HEPG2TOX_HILL_SLOPE 7.05, HEPG2TOX_R_SQUARED 0.741, PBLUC_HILL_SLOPE 9.57, PBLUC_R_SQUARED 0.198, read-out: LUCIFERASE INFECTION ASSAY - IC50”, the IC50 came out at 8.84 µM.
In the case of `CC(C)N1/C(=C/c2ccc3c(c2)OCCO3)C(=O)c2ccccc2S1(=O)=O`, the IC90 was > 8.56 µM. The IC50 (HEPG2TOX_HILL_SLOPE 4.1, HEPG2TOX_R_SQUARED 0.916, PBLUC_HILL_SLOPE 3.33, PBLUC_R_SQUARED 0.555, read-out: LUCIFERASE INFECTION ASSAY - IC50) turned out to be 5.07 µM.
On to `CC(C)(C)c1cc(C(=O)Nc2ccc(Cl)cc2)n(Cc2ccccc2)n1`, for which the IC90 was > 8.97 µM. Moreover, under “PBLUC_HILL_SLOPE 1.52, PBLUC_R_SQUARED 0.257, read-out: LUCIFERASE INFECTION ASSAY - IC50”, the IC50 was 6.98 µM.
As for `Cc1cn2nc(N(C)Cc3ccc(N(C)C)cc3)sc2n1`, the IC90 is > 10 µM. Also, the IC50 (HEPG2TOX_HILL_SLOPE 9.75, HEPG2TOX_R_SQUARED 0.561, PBLUC_HILL_SLOPE 7.25, PBLUC_R_SQUARED 0.0375, read-out: LUCIFERASE INFECTION ASSAY - IC50) was found to be 7.97 µM.
Turning to `CC(C)(C)c1ccc2nc(/C(=C\c3ccc(F)cc3)NC(=O)c3ccccc3)[nH]c2c1`, the IC90 is > 7.98 µM. For the same compound, the IC50 (PBLUC_HILL_SLOPE 14.3, PBLUC_R_SQUARED 0.247, read-out: LUCIFERASE INFECTION ASSAY - IC50) turned out to be 6.92 µM.
For `CCOc1cc(N2CCOCC2)c(OCC)cc1NC(=O)COc1ccc(-c2nnco2)cc1`, the IC90 was > 10 µM. In addition, the IC50 under setting [1] is > 10 µM.
Consider `CCn1c(=O)c(=O)[nH]c2cc(C(=O)Nc3ccc(Oc4ccccc4)cc3)ccc21`, for which the IC90 is > 10 µM. For the same compound, the IC50 under setting [1] is > 10 µM.
Take `CCOC(=O)c1cc(C#N)c(Sc2ccccn2)nc1C(F)(F)F`: the IC90 was > 9.34 µM. Besides, the IC50 under setting [1] was > 9.34 µM.
As to `O=C(CCN1c2ccccc2Sc2ccccc21)N1CCCS/C1=N\c1ccccc1`, the IC90 was > 10 µM. In addition, under setting [1], the half-inhibitory concentration (IC50) is > 10 µM.
`COCCNC(=O)c1nn(CCC(C)C)c2c1CN(C(=O)c1cc(C)n[nH]1)CC2`: the IC90 was 3.47 µM. Moreover, the IC50 (PBLUC_HILL_SLOPE 11.6, PBLUC_R_SQUARED 0.412, read-out: LUCIFERASE INFECTION ASSAY - IC50) turned out to be 2.87 µM.
Regarding `O=C(NNC(=S)NC(=O)c1cn(-c2ccccc2)nc1-c1ccc(Br)cc1)c1ccncc1`, the IC90 is 3.48 µM. In addition, the IC50 (HEPG2TOX_HILL_SLOPE 6.43, HEPG2TOX_R_SQUARED 0.426, PBLUC_HILL_SLOPE 13.5, PBLUC_R_SQUARED 0.624, read-out: LUCIFERASE INFECTION ASSAY - IC50) was found to be 2.96 µM.
`Nc1ccc(SC(F)(F)F)cc1`: the IC90 was > 10 µM. The half-maximal inhibitory concentration (IC50) under setting [1] is > 10 µM.
With `COc1ccc(OC)c(CN2CCN(c3nn4cc(-c5ccccc5)nc4s3)CC2)c1`, the IC90 was > 10 µM. The IC50 (PBLUC_HILL_SLOPE 9.65, 2.13, PBLUC_R_SQUARED 0.339, 0.240, read-out: LUCIFERASE INFECTION ASSAY - IC50) is 6.69 µM.
Consider `O=C(Nc1ccc(Cl)c(Cl)c1)Nc1ccnn1C1CCCCC1`, for which the 90% effect concentration (IC90) is > 10 µM. Also, the IC50 (PBLUC_HILL_SLOPE 0.873, PBLUC_R_SQUARED 0.34, read-out: LUCIFERASE INFECTION ASSAY - IC50) was > 10 µM.
Turning to `COc1ccc(NC(=O)C(C(=O)Nc2ccc(OC)cc2)C23CC4CC(CC(C4)C2)C3)cc1`, the IC90 is > 10 µM. Besides, the IC50 under setting [1] is 7.12 µM.
For `CCOC(=O)c1sc(S(=O)(=O)Cc2ccccc2)c2c1CC(C)(C)CC2=O` the same measures were > 8.12 µM and > 8.12 µM.
On to `NC(=O)C1CCN(c2nc(-c3cccs3)nc3sc4c(c23)CCCC4)CC1`, for which the IC90 was > 10 µM. Also, the IC50 under setting [1] is > 10 µM.
